Measured values: patent publication US11213020B2, “Atopic dermatitis model non-human animal and use thereof” (KYUSHU UNIVERSITY, NATIONAL UNIVERSITY CORPORATION, priority 2016, dated 2022)

How the values were obtained:
EPAS1 protein = assay: Western blotting of EPAS1 expression in CD4+ T cells treated with EPAS1 inhibitor; type: cell-based; conditions: human CD4+ T cells (patients with atopic dermatitis and healthy controls), inhibitor at 30 μM, FIG. 44
Source text: (§1) Human peripheral blood samples were collected from atopic dermatitis patients and healthy volunteers in compliance with Institutional Review Board protocols of the facility. Human peripheral blood mononuclear cells (PBMC) were separated by Percoll (GE Healthcare) gradient centrifugation. The CD4^+ T cells were isolated from PBMCs by magnetic sorting by using Dynabeads human CD4 followed by treatment with DETACHaBEAD human CD4 (Life Technologies).
(§2) After being suspended in complete RPMI 1640 medium, CD4^+ T cells (3×10^5 cells/well) were stimulated in a 24-well plate coated with anti-human CD3ε antibody (model “Hit3a”, Tonbo Biosciences) for 6 hours. In some experiments, the CD4^+ T cells were treated with EPAS1 inhibitors, FM19G11 or HIFVII at 30 μM (both from Calbiochem).
Cells were lysed in 20 mM Tris-HCl buffer (pH 7.5) containing 1% Triton X-100, 150 mM NaCl, 1 mM EDTA, 1 mM EGTA, 2.5 mM sodium pyrophosphate, 1 mM β-glycerophosphate, 1 mM Na3VO4, and complete protease inhibitors (Roche).
After centrifugation, the supernatants were mixed with an equal volume of 2× sample buffer (125 mM Tris-HCl, 0.01% bromophenacyl bromide, 4% SDS, 20% glycerol, and […] dithiothreitol). Samples were boiled for 5 minutes and analyzed by inmmunoblotting.
The following antibodies were used. […]

IL-31 gene = IL-31 gene expression in CD4+ T cells from patients with atopic dermatitis following TCR stimulation (real-time PCR); type: cell-based, human; conditions: anti-CD3ε stimulation 6 hours, inhibitor at 30 μM, FIG. 45 (a), (c)
Source text: as §1, §2
(§3) Total RNA was extracted using ISOGEN (trade name, Nippon Gene). After treatment with RNase-free DNase I (Life Technologies), RNA samples were reverse-transcribed with oligo (dT) primers (Life Technologies) and SuperScript III reverse transcriptase (Life Technologies) for amplification by PCR.
(§4) Real-time PCR was performed using ABI PRISM 7,000 Sequence Detection System (trade name, Applied Biosystems) and SYBR Green PCR Master Mix (Applied Biosystems).
(§5) The expression levels of human and mouse target genes were normalized based on expression levels of GAPDH and HPRT. […]

IL-2 gene = IL-2 gene expression in CD4+ T cells from patients with atopic dermatitis following TCR stimulation (real-time PCR); type: cell-based, human; conditions: anti-CD3ε stimulation 6 hours, inhibitor at 30 μM, FIG. 45 (b)
Source text: as §1, §2, §3, §4, §5

With `Cc1ccc(C(=O)COC(=O)c2cccc(NC(=O)c3ccc([N+](=O)[O-])cc3[N+](=O)[O-])c2)cc1` [FM19G11, 3-[(2,4-dinitrobenzoyl)amino]-benzoic acid 2-(4-methylphenyl)-2-oxoethyl ester] the “expression level of EPAS1 protein” value (EPAS1 protein) was “markedly decreased”, the “expression of the IL-31 gene following TCR stimulation” value (IL-31 gene) was “markedly suppressed” and the “expression levels of the IL-2 gene following TCR stimulation” value (IL-2 gene) was “comparable”.
